Publication PMC10620772, “Design, synthesis, and biological evaluation of new pyrimidine-5-carbonitrile derivatives as novel anti-cancer, dual EGFR^WT/COX-2 inhibitors with docking studies” (RSC Advances, 2023)

Tests used:
Assay in all cases: NCI60 antitumor screening
Type in all cases: cell-based, human
CAKI-1 = tested on: CAKI-1
HT29 = tested on: HT29
NCI-H322M = tested on: NCI-H322M
HOP-62 = details: for GI%: 10 μM one-dose
IGROV1 = tested on: IGROV1
OVCAR-3 = tested on: OVCAR-3
U251 = tested on: U251
HCT-15 = tested on: HCT-15
A498 = tested on: A498
MDA-MB-435 = tested on: MDA-MB-435
UACC-257 = tested on: UACC-257
SNB-19 = tested on: SNB-19
K-562 = details: for GI%: 10 μM one-dose
MOLT-4 = tested on: MOLT-4
NCI-H460 = tested on: NCI-H460
M14 = tested on: M14
SN12C = tested on: SN12C
SNB-75 = tested on: SNB-75
SF-295 = tested on: SF-295
PC-3 = tested on: PC-3
MCF7 = tested on: MCF7
A549/ATCC = tested on: A549/ATCC
T-47D = tested on: T-47D
HS 578T = details: for GI%: 10 μM one-dose
MALME-3M = tested on: MALME-3M
MDA-MB-468 = tested on: MDA-MB-468
ACHN = tested on: ACHN
SF-268 = tested on: SF-268
OVCAR-5 = tested on: OVCAR-5
SK-MEL-5 = tested on: SK-MEL-5
SF-539 = details: for GI%: 10 μM one-dose
KM12 = tested on: KM12
HL-60(TB) = tested on: HL-60(TB)
CCRF-CEM = tested on: CCRF-CEM
786–0 = details: for GI%: 10 μM one-dose
TK-10 = tested on: TK-10
NCI-H522 = tested on: NCI-H522

Compound: Cc1ccc(CSc2nc(-c3ccc(F)cc3)c(C#N)c(N3CCOCC3)n2)cc1 [4d, 4-(4-Fluorophenyl)-2-((4-methylbenzyl)thio)-6-morpholinopyrimidine-5-carbonitrile]
- GI% (CAKI-1; 10 μM one-dose): 44.00%
- GI% (HT29; 10 μM one-dose): — (GI% < 10)
- GI% (NCI-H322M; 10 μM one-dose): — (GI% < 10)
- GI% (HOP-62): 36.77%
- GI% (HOP-62; Table 1): — (GI value > 70%)
- GI% (IGROV1; 10 μM one-dose): — (GI% < 10)
- GI% (OVCAR-3; 10 μM one-dose): — (GI% < 10)
- GI% (U251; 10 μM one-dose): 13.13%
- GI% (HCT-15; 10 μM one-dose): — (GI% < 10)
- GI% (A498; 10 μM one-dose): — (GI% < 10)
- GI% (MDA-MB-435; 10 μM one-dose): — (GI% < 10)
- GI% (UACC-257; 10 μM one-dose): 17.42%
- GI% (SNB-19; 10 μM one-dose): 44.48%
- GI% (K-562): 10.67%
- GI% (K-562; Table 1): — (GI value > 70%)
- GI% (MOLT-4; 10 μM one-dose): — (GI% < 10)
- GI% (NCI-H460; 10 μM one-dose): — (GI% < 10)
- GI% (M14; 10 μM one-dose): — (GI% < 10)
- GI% (SN12C; 10 μM one-dose): — (GI% < 10)
- GI% (SNB-75; 10 μM one-dose, Table 1): 88.04%
- GI% (SF-295; 10 μM one-dose): 32.25%
- GI% (PC-3; 10 μM one-dose): — (GI% < 10)
- GI% (MCF7; 10 μM one-dose): 11.76%
- GI% (A549/ATCC; 10 μM one-dose): 24.90%
- GI% (T-47D; 10 μM one-dose): 12.46%
- GI% (HS 578T): 48.85%
- GI% (HS 578T; Table 1): — (GI value > 70%)
- GI% (MALME-3M; 10 μM one-dose): 26.17%
- GI% (MDA-MB-468; 10 μM one-dose): — (GI% < 10)
- GI% (ACHN; 10 μM one-dose): 37.30%
- GI% (SF-268; 10 μM one-dose): 22.32%
- GI% (OVCAR-5; 10 μM one-dose): — (GI% < 10)
- GI% (SK-MEL-5; 10 μM one-dose): 10.99%
- GI% (SF-539): 32.27%
- GI% (SF-539; Table 1): — (GI value > 70%)
- GI% (KM12; 10 μM one-dose): — (GI% < 10)
- GI% (HL-60(TB); 10 μM one-dose): — (GI% < 10)
- GI% (CCRF-CEM; 10 μM one-dose): — (GI% < 10)
- GI% (786–0): 55.92%
- GI% (786–0; Table 1): — (GI value > 70%)
- GI% (TK-10; 10 μM one-dose): — (GI% < 10)
- GI% (NCI-H522; 10 μM one-dose): 44.57%

Compound: N#Cc1c(-c2ccc(F)cc2)nc(SCc2ccc([N+](=O)[O-])cc2)nc1N1CCN(c2ccccc2)CC1 [4o, 4-(4-Fluorophenyl)-2-((4-nitrobenzyl)thio)-6-(4-phenylpiperazin-1-yl)pyrimidine-5-carbonitrile]
- inhibition at 10 µM (CAKI-1; Homo sapiens, 10 μM single dose, CAKI-1 (renal cancer), read-out: growth inhibition percent (GI%)): 13.7%
- inhibition at 10 µM (HT29; Homo sapiens, HT-29, 10 μM single dose, HT29 (colon cancer), read-out: growth inhibition percent (GI%)): < 10%
- inhibition at 10 µM (NCI-H322M; Homo sapiens, 10 μM single dose, NCI-H322M (non-small cell lung cancer), read-out: growth inhibition percent (GI%)): < 10%
- inhibition at 10 µM (HOP-62; Homo sapiens, 10 μM single dose, HOP-62 (non-small cell lung cancer), read-out: growth inhibition percent (GI%)): < 10%
- inhibition at 10 µM (IGROV1; Homo sapiens, IGROV-1, 10 μM single dose, IGROV1 (ovarian cancer), read-out: growth inhibition percent (GI%)): < 10%
- inhibition at 10 µM (OVCAR-3; Homo sapiens, 10 μM single dose, OVCAR-3 (ovarian cancer), read-out: growth inhibition percent (GI%)): < 10%
- inhibition at 10 µM (U251; Homo sapiens, U-251, 10 μM single dose, U251 (CNS cancer), read-out: growth inhibition percent (GI%)): < 10%
- inhibition at 10 µM (HCT-15; Homo sapiens, 10 μM single dose, HCT-15 (colon cancer), read-out: growth inhibition percent (GI%)): < 10%
- inhibition at 10 µM (A498; Homo sapiens, 10 μM single dose, A498 (renal cancer), read-out: growth inhibition percent (GI%)): < 10%
- inhibition at 10 µM (MDA-MB-435; Homo sapiens, 10 μM single dose, MDA-MB-435 (melanoma), read-out: growth inhibition percent (GI%)): < 10%
- inhibition at 10 µM (UACC-257; Homo sapiens, 10 μM single dose, UACC-257 (melanoma), read-out: growth inhibition percent (GI%)): < 10%
- inhibition at 10 µM (SNB-19; Homo sapiens, 10 μM single dose, SNB-19 (CNS cancer), read-out: growth inhibition percent (GI%)): < 10%
- inhibition at 10 µM (K-562; Homo sapiens, 10 μM single dose, (leukaemia), read-out: growth inhibition percent (GI%)): < 10%
- inhibition at 10 µM (MOLT-4; Homo sapiens, 10 μM single dose, MOLT-4 (leukaemia), read-out: growth inhibition percent (GI%)): < 10%
- inhibition at 10 µM (NCI-H460; Homo sapiens, 10 μM single dose, NCI-H460 (non-small cell lung cancer), read-out: growth inhibition percent (GI%)): < 10%
- inhibition at 10 µM (M14; Homo sapiens, 10 μM single dose, M14 (melanoma), read-out: growth inhibition percent (GI%)): < 10%
- inhibition at 10 µM (SN12C; Homo sapiens, 10 μM single dose, SN12C (renal cancer), read-out: growth inhibition percent (GI%)): < 10%
- inhibition at 10 µM (SNB-75; Homo sapiens, 10 μM single dose, SNB-75 (CNS cancer), read-out: growth inhibition percent (GI%)): 12.4%
- inhibition at 10 µM (SF-295; Homo sapiens, 10 μM single dose, SF-295 (CNS cancer), read-out: growth inhibition percent (GI%)): < 10%
- inhibition at 10 µM (PC-3; Homo sapiens, 10 μM single dose, PC-3 (prostate cancer), read-out: growth inhibition percent (GI%)): < 10%
- inhibition at 10 µM (MCF7; Homo sapiens, 10 μM single dose, MCF7 (breast cancer), read-out: growth inhibition percent (GI%)): 14.8%
- inhibition at 10 µM (A549/ATCC; Homo sapiens, 10 μM single dose, A549/ATCC (non-small cell lung cancer), read-out: growth inhibition percent (GI%)): < 10%
- inhibition at 10 µM (T-47D; Homo sapiens, T47D, 10 μM single dose, T-47D (breast cancer), read-out: growth inhibition percent (GI%)): < 10%
- inhibition at 10 µM (HS 578T; Homo sapiens, 10 μM single dose, HS 578T (breast cancer), read-out: growth inhibition percent (GI%)): < 10%
- inhibition at 10 µM (MALME-3M; Homo sapiens, 10 μM single dose, MALME-3M (melanoma), read-out: growth inhibition percent (GI%)): < 10%
- inhibition at 10 µM (MDA-MB-468; Homo sapiens, 10 μM single dose, MDA-MB-468 (breast cancer), read-out: growth inhibition percent (GI%)): 10.9%
- inhibition at 10 µM (ACHN; Homo sapiens, 10 μM single dose, ACHN (renal cancer), read-out: growth inhibition percent (GI%)): < 10%
- inhibition at 10 µM (SF-268; Homo sapiens, 10 μM single dose, SF-268 (CNS cancer), read-out: growth inhibition percent (GI%)): < 10%
- inhibition at 10 µM (OVCAR-5; Homo sapiens, 10 μM single dose, OVCAR-5 (ovarian cancer), read-out: growth inhibition percent (GI%)): < 10%
- inhibition at 10 µM (SK-MEL-5; Homo sapiens, 10 μM single dose, SK-MEL-5 (melanoma), read-out: growth inhibition percent (GI%)): < 10%
- inhibition at 10 µM (SF-539; Homo sapiens, 10 μM single dose, SF-539 (CNS cancer), read-out: growth inhibition percent (GI%)): < 10%
- inhibition at 10 µM (KM12; Homo sapiens, 10 μM single dose, KM12 (colon cancer), read-out: growth inhibition percent (GI%)): < 10%
- inhibition at 10 µM (HL-60(TB); Homo sapiens, 10 μM single dose, HL-60(TB) (leukaemia), read-out: growth inhibition percent (GI%)): < 10%
- inhibition at 10 µM (CCRF-CEM; Homo sapiens, 10 μM single dose, CCRF-CEM (leukaemia), read-out: growth inhibition percent (GI%)): < 10%
- inhibition at 10 µM (786–0; Homo sapiens, 10 μM single dose, 786–0 (renal cancer), read-out: growth inhibition percent (GI%)): < 10%
- inhibition at 10 µM (TK-10; Homo sapiens, 10 μM single dose, TK-10 (renal cancer), read-out: growth inhibition percent (GI%)): < 10%
- inhibition at 10 µM (NCI-H522; Homo sapiens, 10 μM single dose, NCI-H522 (non-small cell lung cancer), read-out: growth inhibition percent (GI%)): < 10%
